Experimental data taken from patent publication US6590140B1, “Metal-regulated transporters and uses therefor” (Trustees of Dartmouth College, priority 1996, dated 2003).
Entries after “also recorded” stand apart in the source; their conditions may differ.

Assays:
[1] = molecular target: T1, IRT1 (Arabidopsis thaliana, UniProt Q38856); experiment: 55Fe uptake in fet3 fet4 yeast expressing IRT1; format: cell-based; details: for effect on the rate of iron uptake by IRT1: 10 μM metal, 10 times the radiolabeled iron, Fe(II) with 1 mM ascorbate, 10 min
T1 construct: contain a single 1017 bp open reading frame capable of encoding a polypeptide of 339 amino acids; expressed in transfected cells; host or cells: S. cerevisiae fet3 fet4 strain DEY1453 carrying pIRT-1 (pFL61 library vector, phosphoglycerate kinase promoter)
T1 sequence (Q38856 9-347 limits assumed): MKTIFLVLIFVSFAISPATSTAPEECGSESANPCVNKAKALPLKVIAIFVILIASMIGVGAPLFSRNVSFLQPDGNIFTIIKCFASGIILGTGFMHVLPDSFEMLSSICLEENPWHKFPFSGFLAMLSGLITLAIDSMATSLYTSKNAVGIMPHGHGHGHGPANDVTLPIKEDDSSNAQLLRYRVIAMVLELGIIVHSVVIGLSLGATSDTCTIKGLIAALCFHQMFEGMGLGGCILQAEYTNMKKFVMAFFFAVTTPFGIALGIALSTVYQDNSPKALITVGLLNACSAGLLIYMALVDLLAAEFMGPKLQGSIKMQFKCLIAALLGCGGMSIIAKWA
Protocol: Iron uptake assays using ^55FeCl3 (Amersham, Arlington Heights, Ill.) were performed as described (Eide, D. et al. (1992) J. Biol. Chem. 267: 20774-20781) except that MGN (10 mM Mes/2% glucose/1 mM nitrilotriacetic acid, pH 6.1) was used for the assay buffer. Where noted, 1 mM sodium ascorbate was added to reduce Fe(III) to Fe(II). Stock solutions of the chloride salt of each metal (except for iron) were prepared in water at a concentration of 100 mM and diluted into MGN to a final concentration of 10 μM before addition of the cells. The ^56FeCl3 stock was 50 mM prepared in 0.1 M HCl. The statistical significance of differences in values relative to controls was determined using STATVIEW software (Abacus Concepts, Berkeley, Calif.). Data was subjected to one-way analysis of variance (ANOVA) followed by a Scheffe's test.
To determine if IRT1 encodes an iron transporter, ^55Fe uptake rates were examined in a fet3 fet4 strain expressing IRT1. Little or no uptake was detected at 0° C. for either IRT1-expressing or untransformed control cells (FIG. 2A). The fet3 fet4 mutant strain DEY1453 (circles) and DEY1453 transformed with pIRT-1 (squares) were grown to exponential phase in SD glucose and assayed for iron uptake with ^55Fe. (A) Time- and temperature-dependence of iron accumulation assayed in MGN with 1 mM ascorbate and 5 μM ^55FeCl3 assayed at 30° C. (open symbols) or 0° C. (solid symbols). The dashed line marked with open triangles represents the IRT1-dependent accumulation, i.e., the accumulation of iron by the untransformed strain at 30° C. subtracted from the accumulation of the pIRT-1-bearing strain at 30° C. […] The IRT1-dependent rate was ≈3-fold higher than the control uptake rate. No increased uptake was apparent in strains bearing either of two randomly selected clones from the library, indicating the dependence of these uptake effects on expression of IRT1. The iron uptake activity dependent on IRT1 expression was also concentration-dependent and saturable (FIG. 2B). The same strains as in A were assayed for iron uptake rates for 10 min over a range of concentrations. The dashed lines marked with open triangles represents the IRT1-dependent uptake rate, i.e., background uptake rate of the untransformed strain subtracted from the corresponding rate of the pIRT-1-bearing strains. (Inset) Eadie-Hofstee plot of the IRT1-dependent uptake data. Each point represents the mean of three experiments each performed in duplicate. The standard deviation within each experiment was less that 20% of the corresponding mean.
The experiments described above were conducted with iron supplied as Fe(II), i.e., in the presence of ascorbate, an agent capable of reducing Fe(III) to Fe(II). To determine if Fe(II) is the preferred substrate over Fe(III), assays were carried out in the absence of ascorbate where iron is supplied to the cells as Fe(III). […] The fet3 fet4 mutant strain DEY1453 and DEY1453 transformed with pIRT-1 were grown to exponential phase is SD glucose and assayed for iron uptake with 1 μM FeCl3 in MGN for 10 min. The values shown are the IRT1-dependent rates, i.e., the untransformed strain control values were subtracted from the DEY1453 pIRT-1 values and represent the means of four replicates. The asterisks indicate significant of differences from the control values (P<0.05). Assays were performed in the absence [Fe(III)] or presence [Fe(II)] of 1 mM ascorbate. […] Although yeast are capable of reducing Fe(III) to Fe(II) through the action of plasma membrane Fe(III) reductases, this rate of cell-mediated reduction is slower than reduction by ascorbate and therefore may be rate-limiting for IRT1-dependent uptake. To assess if metals other than iron are potential substrates for IRT1, several transition metals were tested for their ability to inhibit accumulation of iron in IRT1-expressing cells (FIG. 3B). Assays were conducted in the absence (−) or presence of 10 μM metal. […]

[2] = molecular target: T2, high affinity zinc uptake system (Zrt1p) (Saccharomyces cerevisiae, UniProt P32804); experiment: 65Zn uptake assay in yeast, high affinity zinc uptake system; format: cell-based
T2 construct: endogenous in cells; host or cells: S. cerevisiae DY1457 (wild type, zinc-limited) and ZHY2 (zrt2); one kinetic value comes from ZHY1 carrying pOE1 (ZRT1 ORF under the GAL1 promoter)
Protocol: (§1) Zinc uptake assays were performed as described previously for iron uptake (Eide et al. J. Biol. Chem. 267:20774-20781) except that ^65ZnCl2 (Amersham Corp., Arlington Heights, Ill.) and LZM-EDTA were substituted for ^59FeCl3 and LIM-EDTA. Cells were incubated at 30° C. with ^65Zn for five minutes, filtered, and washed with 10 ml ice-cold SSW. Cell-associated radioactivity was measured by liquid scintillation. Kinetic values were derived using KinetAsyst software (IntelliKinetics, Princeton, N.J.). Zinc accumulation was measured in cells grown in LZM medium supplemented with […] ^65Zn plus nonradioactive zinc to the indicated final concentration. Aliquots (0.5 ml) were filtered, washed with 10 ml ice-cold SSW, and counted by liquid scintillation. b-galactosidase activity was assayed as described by Guarente (Guarante, L. (1983) Methods Enzymol101:181-191).
(§2) Zinc uptake assays were performed as described previously for iron uptake (Eide et al. (1992) J. Biol. Chem. 267:20774-20781) except that ^65ZnCl2 (Amersham) and LZM-EDTA were substituted for ^59FeCI3 and LIM-EDTA, respectively. Cells were incubated for 5 minutes in LZM-EDTA plus the indicated concentration of ^65Zn, collected on glass fiber filters (Schleicher and Schuell), washed with 10 ml ice-cold SSW (1 mM EDTA, 20 mM trisodium citrate, 1 mM KH2PO4, 1 mM CaCl2, 5 mM MgSO4, 1 mM NaCl pH 4.2), and cell-associated radioactivity was measured by liquid scintillation counting. Cells were starved for glucose by incubating them in LZM-EDTA prepared without glucose for one hour at 30° C. prior to assay. Michaelis-Menten kinetic values were determined using […] software (Intellikinetics, Princeton, N.J.). Stock solutions of the chloride salts of Co, Cu, Mg, Mn, and Ni were prepared in distilled water at a concentration of 100 mM. The nonradioactive ZnCl2 stock was prepared at 100 mM in 0.02 N HCl and the FeCl3 stock was prepared at 50 mM in 0.1 N HCl. The statistical significance of the differences of values relative to controls was determined with one-way analysis of variance (ANOVA) followed by a Dunnett multiple comparison test. β-galactosidase activity was assayed in cells harvested at an OD600 of 0.5-2.0 as described by Guarente (Guarente, L. (1983) Methods Enzymol. 101:181-191) and activity is expressed as the change in absorbance at 420 nm×1000 divided by (min×ml of culture used×OD600 of the culture). Cell-associated zinc was measured in parallel cultures supplemented with tracer amounts of ^65Zn (10 μM) and nonradioactive zinc to the indicated final concentration. Aliquots (0.5 ml) were filtered, washed with 10 ml ice-cold SSW, and radioactivity measured by liquid scintillation.
(§3) To determine if ZRT1 plays a role in zinc uptake, the biochemical properties of this process in wild type cells were first characterized. […] Wild type (FIG. 10, DY1457, squares) and zrt1 mutant (FIG. 10, ZHY1, circles) cells were grown to exponential phase in zinc-limited (open symbols, FIG. 10) and zinc-replete (FIG. 10, closed symbols) media and assayed for zinc uptake rate over a range ZnSO4 concentrations. Zinc-limited media was LZM+10 μM zinc for the wild type and LZM+500 μM zinc for the mutant. Zinc-replete conditions were LZM+1000 μM for both strains. ZHY1(pOE1) cells (FIG. 10, triangles) were grown in zinc-replete SDgal medium.
(§4) Mutant zrt1 (ZHY1) cells were grown in LZM supplemented with 1 mM ZnCl2. Cells were incubated with 10 μM ^65Zn for the indicated times at either […]

[3] = molecular target: T3, low affinity zinc uptake system (Zrt2p) (Saccharomyces cerevisiae, UniProt Q12436); format: cell-based
T3 construct: endogenous in cells; host or cells: S. cerevisiae ZHY1 (zrt1::LEU2) and zinc-replete DY1457; some values come from ZHY1 carrying pMC4 (multicopy genomic ZRT2) or pOE2 (ZRT2 ORF under GAL1)
Protocol: as §1, §2, §3, §4

[4] = tested on: zrt1 mutant (ZHY1) cells; format: cell-based, Saccharomyces cerevisiae; details: 500 μM metal added to iron-limiting medium LIM (1 mM EDTA)
Protocol: Strains used were DY1457 (MATα ade6 can1 his3 leu2 trp1 ura3) and ZHY1 (MaTα ade6 can1 his3 leu2 trp1 ura3 zrt1:: LEU2). Yeast were grown in standard culture media (SD, YPD) (Eide, D., Davis-Kaplan S., Jordan, I., Sipe, D., and Kaplan, J. (199: 2) J. Biol. Chem. 267, 20774-20781) supplemented with necessary auxotrophic requirements and either 2% glucose or 2% galactose. A zinc-limiting medium (LZM) was prepared in the same manner as LIM (Eide and Guarenete (1992) J. Gen. Microbiol. 138:347-354) except that […]. Cell number in liquid cultures was determined by measuring the optical density of cell suspensions at 600 nm (A600) and converting to cell number with a standard curve.
Strains used were DY1457 (MATα ade6 can1 his3 leu2 trp1 ura3), ZHY1 (AMTα ade6 can1 his3 leu2 trp1 ura3 zrt1::LEU2), ZHY2 (MATα ade6 can1 his3 leu2 trp1 ura3 zrt2::HIS3), and ZHY3 (MATα ade6 can1 his3 leu2 trp1 ura3 zrt1::LEU2 zrt2::HIS3). Yeast were grown in YP or SD media (Sherman et al. (1986) Methods in Yeast Genetics, Cold Spring Harbor Laboratory, Cold Spring Harbor, N.Y.) supplemented with necessary auxotrophic requirements and either 2% glucose or 2% galactose. Zinc-limiting YP and SD agar plates contained either bathophenanthroline disulfonate (BPS, 200 μM) or EDTA (1 mM), respectively. A liquid zinc-limiting medium (low zinc medium, LZM) was prepared in the same manner as low iron medium (LIM) (Eide and Guarente (1992) J. Gen. Microbiol. 138:347-354) except that the […]. LZM is similar in composition to SD medium with two modifications essential to controlling zinc availability. First, 1 mM EDTA is added to provide buffering for the concentration of free metal ions. Second, the medium is pH-buffered at 4.2 with 20 mM citrate to prevent pH changes that could alter the metal binding ability of EDTA. LZM was also prepared without EDTA ([…]) which is less zinc-limiting because the predominant chelator in this medium, citrate, binds zinc with less affinity than does EDTA. The concentrations of free (i.e. unchelated) zinc were calculated using MAXCHELATOR software (Chris Patton, Stanford University). Cell number in liquid cultures was determined by measuring the absorbance of cell suspensions at 600 nm (OD600) and converting to cell number with a standard curve.
To examine the function of ZRT1, a disruption mutation, zrt1::LEU2, was constructed by inserting the LEU2 gene into the center of ZRT1 (FIG. 6). This zrt1 disruption allele was then introduced into a haploid yeast strain. […] Because of the high EDTA concentration in LIM (1 mM), this medium is expected to have low available levels of other metals that are bound tightly by this chelator. Supplements of other metals were tested for improved growth of the zrt1 mutant in LIM. […] To study this effect further, a low zinc medium, LZM, was developed in which cell growth could be limited by zinc deficiency and the growth response of the wild type and zrt1 mutant strains to increasing levels of supplemented zinc was examined. Wild type (DY1457, squares) and zrt1 mutant (ZHY1, circles) cells were inoculated into LZM supplemented with the indicated amount of ZnSO4 and grown for 16 hours prior to cell number determination. […] Mutant zrt1 cells attained this same maximum number of cell divisions only with zinc supplements of 750 μM or more, i.e. a 75-fold increase in the zinc requirement of the zrt1 mutant compared to the wild type.
To further assess the role of the low affinity system as a source of zinc, growth of wild type and zrt2 cells in a zinc-limiting medium, LZM, supplemented with increasing amounts of zinc was examined. The same strains as in FIG. 15 were grown for six hours in SD glucose medium, harvested, washed in LZM, and reinoculated into either LZM (FIG. 15A) or LZM-EDTA (FIG. 15B) supplemented with the indicated concentrations of ZnCl2 ([Zn]T). […]

[5] = 1 mM ascorbate, control experiments

T3 sequence (Q12436 whole entry): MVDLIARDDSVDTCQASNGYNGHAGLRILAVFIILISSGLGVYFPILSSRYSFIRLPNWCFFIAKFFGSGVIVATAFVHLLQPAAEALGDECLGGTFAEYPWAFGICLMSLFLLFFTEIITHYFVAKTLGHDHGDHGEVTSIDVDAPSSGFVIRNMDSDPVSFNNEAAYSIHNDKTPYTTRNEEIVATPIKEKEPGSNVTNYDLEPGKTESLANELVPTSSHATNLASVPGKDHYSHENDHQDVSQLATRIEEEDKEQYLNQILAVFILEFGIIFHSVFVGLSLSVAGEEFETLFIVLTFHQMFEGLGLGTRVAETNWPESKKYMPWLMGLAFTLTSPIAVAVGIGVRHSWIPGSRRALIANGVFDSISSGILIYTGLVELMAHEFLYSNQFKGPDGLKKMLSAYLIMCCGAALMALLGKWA
T2 sequence (P32804 whole entry): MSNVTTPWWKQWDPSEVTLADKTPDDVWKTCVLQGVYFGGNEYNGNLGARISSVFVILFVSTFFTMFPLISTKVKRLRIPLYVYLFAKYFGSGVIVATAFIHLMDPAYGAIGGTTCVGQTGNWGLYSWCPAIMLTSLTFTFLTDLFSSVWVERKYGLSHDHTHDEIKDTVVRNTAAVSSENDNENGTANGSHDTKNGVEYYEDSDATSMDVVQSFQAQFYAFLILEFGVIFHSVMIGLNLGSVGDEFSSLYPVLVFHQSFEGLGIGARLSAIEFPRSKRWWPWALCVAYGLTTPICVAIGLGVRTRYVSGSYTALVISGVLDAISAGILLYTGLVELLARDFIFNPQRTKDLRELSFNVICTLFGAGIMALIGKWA

Compound: [Cl][Cd][Cl] [Cd]
- inhibition of IRT1-mediated Fe(II) uptake in yeast (summary statement) [1]: inhibitors of IRT1-mediated Fe(II) uptake; also recorded: strongly inhibited
- effect on the rate of iron uptake by IRT1 [1]: potent inhibitors

Compound: O=C1O[C@H]([C@@H](O)CO)C([O-])=C1O.[Na+] [ascorbate, sodium ascorbate, reference compound]
- effect on the rate of zinc uptake [2, 5]: no effect
- effect on the rate of zinc uptake [3, 5]: no effect

Compound: [K+] [K^+]
- inhibition of zinc uptake by the low affinity system ([3]; high extracellular K+ (100 mM)): not inhibited

Compound: [Cl-].[Cl-].[Sr+2] [Sr]
- effect on the rate of iron uptake by IRT1 [1]: no significant effect

Compound: [Cl-].[Cl-].[Mg+2] [Mg]
- effect on zrt1 growth in LIM [4]: no effect
- effect on zinc uptake by the high affinity system ([2]; 20 μM added metal, 2 μM 65Zn, five minutes, zinc-limited wild type): unaffected
- effect on zinc uptake by the low affinity system ([3]; 200 μM added metal, 20 μM 65Zn, five minutes, zrt1 mutant cells): did not diminish zinc uptake
